Assay results: PubChem BioAssay AID1996
≈ marks a conversion by molar mass, not a printed value.

Conditions: buffer; pH 7.4; 200.0 µM

solubility kinetic	SMILES
> 48.1 µg/mL	COc1ccccc1CN(C)C(=O)c1cc(C)nc2ccccc12
> 49.6 µg/mL	O=C(CSc1nnc2ccccn12)NCCc1ccc(F)cc1
0.9 µg/mL (≈ 2.84 µM)	Cc1ccc(NC(=O)Cn2c(=O)oc3ccccc32)cc1Cl
6.8 µg/mL (≈ 19.8 µM)	O=C(N[C@@H](Cc1ccccc1)C(=O)NC1CC1)c1ccc(Cl)cc1
> 61.6 µg/mL	O=C(CSc1ccc(F)cc1)Nc1cccc(S(=O)(=O)N2CCOCC2)c1
> 43.2 µg/mL	COc1cc(NC(=O)c2ccccn2)cc(OC)c1OC
> 42.7 µg/mL	Cc1cc(C)cc(N2C(=O)CSC2c2ccccn2)c1 (stereo unspecified)
> 48.7 µg/mL	C=CCN(CC=C)CC(=O)Nc1cccc(Oc2cnccn2)c1
3.9 µg/mL (≈ 9.76 µM)	CCN(CC)S(=O)(=O)c1ccc(NC(=O)c2cc(=O)[nH]c3ccccc23)cc1
44.1 µg/mL (≈ 138 µM)	COc1ccc(CCNc2nc(C)c(C(C)=O)s2)cc1OC
31.7 µg/mL (≈ 142 µM)	O=C(O)COCc1nc2ccccc2s1
> 48.1 µg/mL	CCOC(=O)c1ccccc1NC(=O)CSc1nncn1C
29.5 µg/mL (≈ 108 µM)	CNC(=S)Nc1ccc(OCc2ccccc2)cc1
9.2 µg/mL (≈ 33.7 µM)	CCOc1ccc(NC(=O)NCc2cccn2C)cc1
4.7 µg/mL (≈ 15.7 µM)	Cc1cccc(Nc2nc(-c3ccc(O)cc3O)cs2)n1
1.1 µg/mL (≈ 3.19 µM)	Cc1cc(C)cc(NC(=O)CNC(c2ccccc2)c2ccccc2)c1
4.1 µg/mL (≈ 13.2 µM)	COc1ccc(OC)c(CC(=O)Nc2ccc3c(c2)CCC3)c1
> 48.5 µg/mL	Cc1cccc(NC(=O)Cn2nc(-c3ccco3)ccc2=O)c1C

solubility kinetic	SMILES
8.3 µg/mL (≈ 31.9 µM)	Cc1cc(C)cc(NC(=O)c2ccc([N+](=O)[O-])o2)c1
> 48.2 µg/mL	Nc1cc(=O)[nH]c(SCC(=O)Nc2ccc([N+](=O)[O-])cc2)n1
< 0.7 µg/mL	COC(=O)c1ccc(NC(=O)CCC(=O)c2ccc(F)cc2)cc1
> 35.7 µg/mL	O=c1c2ccccc2nc(-c2ccccc2)n1O
> 35.4 µg/mL	Nc1nc(-c2ccccc2)c(-c2ccccc2)o1
> 42.8 µg/mL	Cc1ccc(SCC(=O)NC(C)c2ccccc2)cc1 (stereo unspecified)
> 43.7 µg/mL	C/[N+]([O-])=C/c1c(OCc2ccccc2)ccc2ccccc12
0.7 µg/mL (≈ 2.12 µM)	Cc1cccc(NC(=O)CSc2ncnc3sc(C)cc23)c1
> 43 µg/mL	Cc1ccsc1C(=O)NCCc1nnc2ccccn12
1.7 µg/mL (≈ 4.65 µM)	O=C(Nc1ccccc1)N1CCCN(c2nccc(C(F)(F)F)n2)CC1
> 51.6 µg/mL	O=C(CN1CCN(Cc2ccccc2)CC1)Nc1cccc(Cl)c1
> 33.9 µg/mL	CC(=O)N(Nc1ccccc1)c1ccccc1
> 59.3 µg/mL	CC(=O)Nc1ccc(S(=O)(=O)NCCC(=O)NC(C)c2cccs2)cc1 (stereo unspecified)
> 48.5 µg/mL	Cc1ccn2cc(-c3cccc(NC(=O)CCC(=O)O)c3)nc2c1
> 50.6 µg/mL	COc1ccc(N(CCC#N)C(=O)/C(C#N)=C\c2cccs2)cc1
0.9 µg/mL (≈ 3.03 µM)	O=[N+]([O-])c1cccc(-c2noc(COc3ccccc3)n2)c1
> 49 µg/mL	COc1cccc(CNC(=O)CC(NC(C)=O)c2ccccc2)c1 (stereo unspecified)
3.4 µg/mL (≈ 14.3 µM)	Cc1cccc(-c2nc(-c3ccncc3)no2)c1

Continued, molecule first:

SMILES	solubility kinetic
CCOc1ccc(/C=C(\C)C(=O)c2c(C)cc(C)[nH]c2=O)cc1	38.3 µg/mL (≈ 123 µM)
C#CC[N+](CC)(CC)CC#Cc1ccccc1.[Br-]	37.8 µg/mL
O=[N+]([O-])c1c(NCCO)cc(N2CCCCCC2)c2nonc12	40.5 µg/mL (≈ 126 µM)
Cc1cc(C)c(C)c(S(=O)(=O)N2CCCN(C)CC2)c1C	> 46.6 µg/mL
COc1ccc(S(=O)(=O)N2CCOCC2)cc1NC(=O)COC(=O)c1ccc([N+](=O)[O-])s1	14 µg/mL (≈ 28.8 µM)
COc1ccc(-n2ccnc2)cc1	> 26.1 µg/mL
Cc1ccc(S(=O)(=O)N2CCC(C(=O)N3CCC3)CC2)cc1	47.4 µg/mL (≈ 147 µM)
NC(=O)COC(=O)c1c2c(nc3ccccc13)CCCCC2	> 44.8 µg/mL
O=C(CCC(=O)N1CCN(S(=O)(=O)c2ccc([N+](=O)[O-])cc2)CC1)N1CCOCC1	> 66.1 µg/mL
N#Cc1ccccc1S(=O)(=O)N1CCN(C(=O)C2CC(=O)N(c3ccc4c(c3)OCCO4)C2)CC1 (stereo unspecified)	68.6 µg/mL (≈ 138 µM)
CCN1CCN(CC(=O)N2c3ccccc3Sc3ccccc32)CC1	> 53 µg/mL
NC(=O)c1ccc(NC(=O)C2CCCC2)cc1	> 34.8 µg/mL
CC(=O)N1CCN(c2ccnc3cc(Cl)ccc23)CC1	34.3 µg/mL (≈ 118 µM)
O=C1CSC(c2ccccc2F)N1 (stereo unspecified)	> 29.6 µg/mL
COC(=O)c1c(C(=O)OC)c(-c2ccc(F)cc2)n2c1CS(=O)C2 (stereo unspecified)	> 52.7 µg/mL
Cn1cnnc1SCC(=O)Nc1ccccc1F	> 39.9 µg/mL
CCc1c(C)nc(SCC(=O)N2CCCCC2CC)[nH]c1=O (stereo unspecified)	44.6 µg/mL (≈ 138 µM)
CNC(=S)Nc1cc(C(=O)N2CCCC2)ccc1N1CCCC1	> 49.9 µg/mL
O=C(CSC(=S)N1CCCCC1)c1c(F)cccc1F	4 µg/mL (≈ 12.7 µM)
CCc1cccc(C)c1NC(=O)C1CC(=O)N(C2CCCC2)C1 (stereo unspecified)	> 47.2 µg/mL
Cc1ccc(C)n1-c1ccc(C(=O)/C=C/N(C)C)cc1	25.6 µg/mL (≈ 95.4 µM)
Cc1csc2c(=O)n(CCO)c(=O)[nH]c12	> 33.9 µg/mL
CC1CCN(C(=S)NC(=O)c2ccco2)CC1	> 37.8 µg/mL
O=C(NCCCCO)c1ccc2c3c(cccc13)CC2	39.2 µg/mL (≈ 146 µM)
Cc1cc(C)c2c(CC(=O)O)c(C)[nH]c2c1	28.5 µg/mL (≈ 131 µM)

SMILES	solubility kinetic
C#CCOc1ccc(C2C(C#N)=C(N)Oc3cc(O)ccc32)cc1 (stereo unspecified)	34.5 µg/mL (≈ 108 µM)
CCN(CC)CCN(C(=O)c1ccc2ccccc2c1)c1nc2ccc(OC)cc2s1.Cl	14.2 µg/mL
CC(C)OC(=O)/C(C#N)=C\c1cccnc1	28.2 µg/mL (≈ 130 µM)
CC(Oc1ccc(-c2nnco2)cc1)C(=O)N1CCOCC1 (stereo unspecified)	> 45.5 µg/mL
COc1ccc(NC(=O)c2oc3ccccc3c2CSC)cc1S(=O)(=O)N1CCOCC1	3.8 µg/mL (≈ 7.97 µM)
CCCN(CCC)S(=O)(=O)c1ccc(C(=O)NCc2ccco2)cc1	12.7 µg/mL (≈ 34.8 µM)
COc1ccccc1-n1cccc1C=O	> 30.2 µg/mL
Cc1cc2c(cc1C)C(c1ccccc1F)CC(=O)N2 (stereo unspecified)	< 0.6 µg/mL
COc1ccc(OC)c(NC(=S)N2CCCC2)c1	> 40 µg/mL
CN(c1ccccc1)c1nc(N)c([N+](=O)[O-])c(NC2CCCCC2)n1	< 0.1 µg/mL
CCOC(=O)N1CCN(Cc2ccc3c(c2)OCO3)CC1	41.9 µg/mL (≈ 143 µM)
COP(=O)(NC(=O)C(Cl)(Cl)Cl)OC	> 40.6 µg/mL
Cc1cc(NC(=O)c2cc([N+](=O)[O-])cc([N+](=O)[O-])c2C)no1	38.9 µg/mL (≈ 127 µM)
COC(=O)CSc1nnc(CCc2ccccc2)n1C	> 43.7 µg/mL
Cc1ccc(-c2nc3cc(N)ccc3o2)cc1Br	0.3 µg/mL (≈ 0.99 µM)
CCCN1CCC(NC(=S)Nc2ccc([N+](=O)[O-])cc2)CC1	> 48.4 µg/mL
COc1cccc(-c2nc3ccc(N4CCN(C)CC4)cc3[nH]2)c1	14.5 µg/mL (≈ 45 µM)
COc1cc(OC)cc(C(=O)Nc2ccc(N(C)C)c3ccccc23)c1	< 0.4 µg/mL
CCOC(=O)c1ccc2[nH]c3c(c2c1)CCCC3NC=O (stereo unspecified)	> 42.9 µg/mL
O=C1c2ccsc2SCCN1Cc1cccc(F)c1	42.6 µg/mL (≈ 145 µM)
CC(C)(/C=N/O)N(O)C=C1C=CC(=O)C=C1	> 33.3 µg/mL
COC(=O)C(NC(C)=O)(Nc1cc(C)ccn1)C(F)(F)F (stereo unspecified)	40.7 µg/mL (≈ 133 µM)
COc1cc(C(=O)OC(C)C(=O)Nc2ccc3c(c2)OCCO3)cc(OC)c1OC (stereo unspecified)	7.2 µg/mL (≈ 17.2 µM)
CCOC(=O)C1CCC(CNCc2ccccc2C)CC1.Cl (stereo unspecified)	44.3 µg/mL
COCCN(CCOC)S(=O)(=O)c1ccc(Cl)nc1	45.3 µg/mL (≈ 147 µM)
